Experiments:
Rattus norvegicus [1] = test: Antidiabetic activity in Goto Kakizaki rats assessed as inhibition of blood glucose AUC at 0.3 mg/kg, po pretreated for 1 hr followed by dextrose challenge measured after 20 to 60 mins by OGTT method relative to control; type: functional
[2] = target: T1, Free fatty acid receptor 1 (Homo sapiens, UniProt O14842); test: Agonist activity at recombinant human GPR40 expressed in HEK293 cells assessed as increase in IP1 accumulation measured after 60 mins by HTRF assay; type: functional, cell-based
T1 sequence (O14842 whole entry): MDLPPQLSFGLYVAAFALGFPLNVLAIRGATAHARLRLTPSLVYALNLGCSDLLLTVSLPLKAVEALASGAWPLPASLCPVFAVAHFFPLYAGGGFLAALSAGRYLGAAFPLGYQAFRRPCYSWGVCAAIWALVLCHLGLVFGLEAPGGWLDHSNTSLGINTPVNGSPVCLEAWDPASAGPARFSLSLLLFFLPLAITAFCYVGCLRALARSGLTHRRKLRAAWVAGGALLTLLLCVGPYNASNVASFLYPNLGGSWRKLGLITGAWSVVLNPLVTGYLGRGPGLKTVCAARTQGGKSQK

[3] = target: T1, Free fatty acid receptor 1; test: Agonist activity at recombinant human GPR40 expressed in HEK293 cells assessed as increase in IP1 accumulation measured after 60 mins in presence of 100% human serum by HTRF assay; type: functional, cell-based
Rattus norvegicus [4] = test: Antidiabetic activity in Sprague-Dawley rat assessed as inhibition of blood glucose AUC at 3 mg/kg, po treated prior to dextrose challenge and measured after 20 to 60 mins by IPGTT relative to control; type: functional; details: Rattus norvegicus, Sprague-Dawley, po
[5] = target: T1, Free fatty acid receptor 1; test: Agonist activity at recombinant human GPR40 expressed in HEK293 cells assessed as increase in IP1 accumulation measured after 60 mins by HTRF assay relative to AM-1638; type: functional, cell-based
[6] = target: T1, Free fatty acid receptor 1; test: Agonist activity at recombinant human GPR40 expressed in HEK293 cells assessed as increase in IP1 accumulation measured after 60 mins in presence of 100% human serum by HTRF assay relative to AM-1638; type: functional, cell-based
[7] = target: Free fatty acid receptor 1 (Rattus norvegicus, UniProt Q8K3T4); test: Agonist activity at recombinant rat GPR40 expressed in CHOK1 cells assessed as increase in IP1 accumulation measured after 60 mins by HTRF assay; type: functional, cell-based
Chain of Free fatty acid receptor 1 (Rattus norvegicus, UniProt Q8K3T4) (Q8K3T4 whole entry): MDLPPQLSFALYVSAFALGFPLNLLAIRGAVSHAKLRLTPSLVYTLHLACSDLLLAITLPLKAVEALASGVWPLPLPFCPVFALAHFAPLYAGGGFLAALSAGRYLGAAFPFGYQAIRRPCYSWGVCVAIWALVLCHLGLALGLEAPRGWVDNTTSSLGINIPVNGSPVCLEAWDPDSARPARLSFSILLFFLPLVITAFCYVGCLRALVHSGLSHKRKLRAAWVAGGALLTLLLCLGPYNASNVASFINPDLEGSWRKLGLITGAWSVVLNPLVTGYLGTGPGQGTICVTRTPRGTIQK

[8] = target: Free fatty acid receptor 1 (Rattus norvegicus) (UniProt Q8K3T4); test: Agonist activity at recombinant rat GPR40 expressed in CHOK1 cells assessed as increase in IP1 accumulation measured after 60 mins by HTRF assay relative to AM-1638; type: functional, cell-based
Chain of Free fatty acid receptor 1 (Rattus norvegicus) (Q8K3T4 whole entry): as above

Rattus norvegicus [9] = test: Antidiabetic activity in po dosed Goto Kakizaki rats assessed as reduction in blood glucose excursion pretreated for 1 hr followed by dextrose challenge measured after 20 to 60 mins by OGTT method; type: functional; details: read-out: MED
Rattus norvegicus [10] = test: Antidiabetic activity in po dosed Goto Kakizaki rats assessed as plasma concentration required for reduction in blood glucose excursion at MED pretreated for 1 hr followed by dextrose challenge measured 3 hrs post dose by OGTT; type: functional, organism-based
[11] = Fraction unbound in Wistar-Han rat plasma at 1 mg/kg, iv or 2 mg/kg, po administered as single dose; type: ADME, organism-based
[12] = Clearance in Wistar-Han rat at 1 mg/kg, iv or 2 mg/kg, po administered as single dose; type: ADME, organism-based; details: in vivo
[13] = Volume of distribution at steady state in Wistar-Han rat at 1 mg/kg, iv or 2 mg/kg, po administered as single dose; type: ADME, organism-based; details: in vivo, read-out: Vdss
Rattus norvegicus [14] = test: Antidiabetic activity in Goto Kakizaki rats assessed as inhibition of blood glucose AUC at 3 mg/kg, po pretreated for 1 hr followed by dextrose challenge measured after 20 to 60 mins by OGTT method relative to control; type: functional
Rattus norvegicus [15] = test: Antidiabetic activity in Goto Kakizaki rats assessed as inhibition of blood glucose AUC at 30 mg/kg, po pretreated for 1 hr followed by dextrose challenge measured after 20 to 60 mins by OGTT method relative to control; type: functional
Rattus norvegicus [16] = test: Antidiabetic activity in Goto Kakizaki rats assessed as plasma concentration required for reduction in blood glucose excursion at 0.3 mg/kg, po pretreated for 1 hr followed by dextrose challenge measured 3 hrs post dose by OGTT; type: functional, organism-based
Rattus norvegicus [17] = test: Antidiabetic activity in Goto Kakizaki rats assessed as plasma concentration required for reduction in blood glucose excursion at 1 mg/kg, po pretreated for 1 hr followed by dextrose challenge measured 3 hrs post dose by OGTT; type: functional, organism-based
Rattus norvegicus [18] = test: Antidiabetic activity in Goto Kakizaki rats assessed as plasma concentration required for reduction in blood glucose excursion at 3 mg/kg, po pretreated for 1 hr followed by dextrose challenge measured 3 hrs post dose by OGTT; type: functional, organism-based
Rattus norvegicus [19] = test: Antidiabetic activity in Goto Kakizaki rats assessed as plasma concentration required for reduction in blood glucose excursion at 30 mg/kg, po pretreated for 1 hr followed by dextrose challenge measured 3 hrs post dose by OGTT; type: functional, organism-based
Mus musculus = test: Antidiabetic activity in po dosed C57BL/6 mouse assessed as increase in GLP-1 secretion measured after 1 hr; type: functional, organism-based
[20] = Fraction unbound in Beagle dog plasma at 1 mg/kg, iv or 2 mg/kg, po administered as single dose; type: ADME, organism-based, Canis lupus familiaris
[21] = Clearance in Beagle dog at 1 mg/kg, iv or 2 mg/kg, po administered as single dose; type: ADME, organism-based, Canis lupus familiaris; details: in vivo
[22] = Volume of distribution at steady state in Beagle dog at 1 mg/kg, iv or 2 mg/kg, po administered as single dose; type: ADME, organism-based, Canis lupus familiaris; details: in vivo, read-out: Vdss
[23] = Oral bioavailability in Beagle dog at 2 mg/kg administered as single dose; type: ADME, organism-based, Canis lupus familiaris; details: in vivo
[24] = Clearance in rhesus monkey at 1 mg/kg, iv or 2 mg/kg, po administered as single dose; type: ADME, organism-based, Macaca mulatta; details: in vivo
[25] = Volume of distribution at steady state in rhesus monkey at 1 mg/kg, iv or 2 mg/kg, po administered as single dose; type: ADME, organism-based, Macaca mulatta; details: in vivo, read-out: Vdss
[26] = Effective half life in rhesus monkey at 1 mg/kg, iv or 2 mg/kg, po administered as single dose; type: ADME, organism-based, Macaca mulatta; details: in vivo, read-out: t1/2eff (converted)
[27] = Oral bioavailability in rhesus monkey at 2 mg/kg administered as single dose; type: ADME, organism-based, Macaca mulatta; details: in vivo
[28] = Intrinsic clearance in Wistar-Han rat hepatocytes; type: ADME, cell-based, Hepatocyte; details: read-out: CLH
[29] = Intrinsic clearance in Beagle dog hepatocytes; type: ADME, cell-based, Canis lupus familiaris, Hepatocyte; details: read-out: CLH
[30] = Drug metabolism in human hepatocytes assessed as phenol metabolite formation; type: ADME, cell-based, Hepatocyte
[31] = AUC (0 to 24 hrs) in Wistar rat at 200 mg/kg administered once daily for 4 days; type: ADME, organism-based; set-up: dose 200 mg/kg, time < 24 hr; details: in vivo
[32] = Cmax in Wistar rat at 200 mg/kg administered once daily for 4 days; type: ADME, organism-based; set-up: dose 200 mg/kg; details: in vivo
[33] = Tmax in Wistar rat at 200 mg/kg administered once daily for 4 days; type: ADME, organism-based; details: in vivo
[34] = Cmax in Wistar rat at 750 mg/kg administered once daily for 4 days; type: ADME, organism-based; set-up: dose 750 mg/kg; details: in vivo
[35] = Tmax in Wistar rat at 750 mg/kg administered once daily for 4 days; type: ADME, organism-based; details: in vivo
Rattus norvegicus [36] = test: Toxicity in Wistar rat assessed as decrease in body weight at 750 mg/kg administered once daily for 4 days relative to control; type: organism-based; set-up: scale not given: the % may be the effect or the level left; details: in vivo, 96 h
Rattus norvegicus [37] = test: Toxicity in Wistar rat assessed as mortality at 200 to 750 mg/kg administered once daily for 4 days; type: organism-based; details: in vivo, 96 h
Rattus norvegicus [38] = test: Toxicity in Wistar rat assessed as increase in liver weight at 200 to 750 mg/kg administered once daily for 4 days; type: organism-based; details: in vivo, 96 h
Rattus norvegicus [39] = test: Toxicity in Wistar rat assessed as gross findings at 200 to 750 mg/kg administered once daily for 4 days; type: organism-based; details: in vivo, 96 h
Rattus norvegicus [40] = test: Toxicity in Wistar rat assessed as change in functional observational battery at 200 to 750 mg/kg administered once daily for 4 days; type: organism-based; details: in vivo, 96 h

COc1cc(-c2ccc([C@@H]3CCc4ccc([C@H](C5CC5)[C@H](C)C(=O)[O-])cc4O3)c(F)c2)ccn1.[Na+]
inhibition in vivo at 0.3 mg/kg (Rattus norvegicus [1]): 63% | EC50 [2]: 0.8 nM | EC50 [3]: 35 nM | inhibition in vivo at 3 mg/kg (Rattus norvegicus [4]): 103% | max activation [5]: > 179% | max activation [6]: > 179% | EC50 [7]: 0.49 nM | max activation [8]: > 370% | minimal effective dose (Rattus norvegicus [9]): 10 mg/kg | Cp (Rattus norvegicus [10]): 4.9 µM | fraction unbound [11]: 0.0002 | clearance [12]: 2.8 mL/min/kg | Vd [13]: 0.48 L/kg | inhibition in vivo at 3 mg/kg (Rattus norvegicus [14]): 108% | inhibition in vivo at 30 mg/kg (Rattus norvegicus [15]): 114% | Cp (Rattus norvegicus [16]): 0.25 µM | Cp (Rattus norvegicus [17]): 0.9 µM | Cp (Rattus norvegicus [18]): 2.2 µM | Cp (Rattus norvegicus [19]): 7.7 µM | Activity (Mus musculus): Dose-dependent effect | fraction unbound [20]: 0.015 | clearance [21]: 1.6 mL/min/kg | Vd [22]: 0.45 L/kg | bioavailability [23]: 79% | clearance [24]: 0.72 mL/min/kg | Vd [25]: 0.48 L/kg | half-life [26]: 10 h | bioavailability [27]: 64% | CLint scaled [28]: 241 mL/min/kg | CLint scaled [29]: 126 mL/min/kg | Drug metabolism [30]: Metabolite_Notdetected | AUC at 24 h [31]: 2310 µM·h | Cmax [32]: 223 µM | Tmax [33]: 1 to 2 h | Cmax [34]: 545 µM | Tmax [35]: 1 to 2 h | Activity (Rattus norvegicus [36]): 90% | Activity (Rattus norvegicus [37]): Non-Toxic | Activity (Rattus norvegicus [38]): Non-Toxic | Activity (Rattus norvegicus [39]): Non-Toxic | Activity (Rattus norvegicus [40]): Non-Toxic
